# Measured values reported in PubChem BioAssay (NCI).
# Values joined by “and” are separate entries in the source; they are usually repeats but may differ in a detail not shown here. Equal values may be shown once.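 How tested: cells in 96-well plates exposed to compound for 48 hours at five concentrations. Abbreviation: GI50, concentration required for 50% inhibition of growth. TGI: concentration producing complete growth inhibition.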
# How the values were obtained:
# Assay in all cases: NCI tumour cell line growth inhibition, 48 h
# [1] = system: SK-OV-3 ovarian
# [2] = system: SF-539 CNS
# [3] = system: SNB-19 CNS
# [4] = system: HT29 colon
# [5] = system: SN12C renal
# [6] = system: A498 renal
# [7] = system: 786-0 renal
# [8] = system: MALME-3M melanoma
# [9] = system: SF-268 CNS
# [10] = system: HS 578T breast
SMILES,TGI [1],TGI [2] [µM],TGI [3],TGI [4],TGI [5],TGI [6],TGI [7],TGI [8] [µM],TGI [9] [µM],TGI [10] [µM],GI50 [1] [µM],GI50 [10] [µM],GI50 [2] [µM],GI50 [4] [µM],GI50 [5] [µM],GI50 [6] [µM],GI50 [8] [µM],GI50 [9] [µM]
O=C1NCCS(=O)(=O)N2CCC[C@@H]12,> 100 µM,> 100,> 100 µM,> 100 µM,> 100 µM,> 100 µM,> 100 µM,> 100,> 100,–,–,–,–,–,–,–,–,–
Cc1sc2nc3n(c(=O)c2c1C)N=CN(c1ccc(F)cc1)C3,> 100 µM,–,> 100 µM,> 100 µM,> 100 µM,> 100 µM,38.3 µM,57.2,> 100,79.2,–,–,–,–,–,–,–,–
O=c1ccc2nc(-c3ccccn3)nn(-c3ccccc3)c-2c1,24.1 µM,19.8,–,8.85 µM,5.33 µM,27.2 µM,–,3.37,25.3,35.9,11.1,2.85,6.93,2.85,2.24,14.1,1.77,11.8
O=C(CSc1nc2ccccc2c(=O)n1-c1ccccc1)N=Nc1c(O)[nH]c2ccc(F)cc12,3.75 µM,9.21,67.5 µM,6.96 µM,–,–,5.05 µM,–,4.93,> 100,–,–,–,–,–,–,–,–
CCN1CCC(O)(/C=C/c2ccc(OC)cc2)C(C(=O)/C=C/c2ccc(OC)cc2)C1 (stereo not drawn),22.5 µM,27.8,29.9 µM,25.4 µM,28 µM,27.2 µM,12.4 µM,32.8,28.8,–,–,–,–,–,–,–,–,–
CCOC(=O)N1CCC(=C2c3ccc(Cl)cc3CCc3cccnc32)CC1,29.1 µM,–,–,16.9 µM,24.4 µM,8.12 µM,33.4 µM,24.7,–,> 100,–,–,–,–,–,–,–,–
C=C1CN(C2=NCCO2)C1,–,> 100,> 100 µM,> 100 µM,> 100 µM,–,> 100 µM,> 100,> 100,> 100,–,–,–,–,–,–,–,–
CC1=NN(c2nc(N)nc(CF)n2)C(C)(C)C1,> 100 µM,> 100,> 100 µM,> 100 µM,–,> 100 µM,> 100 µM,–,> 100,> 100,–,–,–,–,–,–,–,–
Cc1nc2ccccc2c(/C=C/c2ccc(Cl)cc2)c1C(=O)/C=C/c1ccccc1,–,3.11,–,> 100 µM,3.36 µM,–,–,3.01,–,–,–,–,1.7,1.58,1.67,–,1.63,–
Cc1ccc([N+](=O)[O-])c2c(NCC(O)CO)ccnc12 (stereo not drawn),> 100 µM,48.6,> 100 µM,> 100 µM,> 100 µM,–,> 100 µM,44.6,> 100,> 100,–,–,–,–,–,–,–,–
C/C=C(/C)C(=O)O[C@H]1[C@H](O)CC(c2ccc3c(c2O)C(O)=C2C(=O)C4(OC)C(O)=C(C(N)=O)C(=O)[C@H](CC(=O)c5ccccc5O)C4CC2[C@@]3(C)OC)O[C@@H]1C (stereo partly drawn),5.72 µM and 2.05 µM,0.101,1.68 µM and 1.06 µM,1.19 µM and 0.255 µM,1.39 µM and 0.198 µM,2.21 µM and 1.49 µM,1.43 µM and 1.35 µM,2.87,2.91,–,–,–,–,–,–,0.0198,–,–
CCCC(=O)[O-].N.N.N.N.N.[Co+3].[O-][Cl+3]([O-])([O-])[O-],> 100 µM,> 100,> 100 µM,> 100 µM,> 100 µM,> 100 µM,> 100 µM,> 100,> 100,–,–,–,–,–,–,–,–,–
CCOC(=O)c1c(-c2cccc3ccccc23)c(C#N)c(=S)n(C2OC(COC(C)=O)C(OC(C)=O)C(OC(C)=O)C2OC(C)=O)c1C (stereo not drawn),> 100 µM,> 100,> 100 µM,> 100 µM,> 100 µM,> 100 µM,> 100 µM,> 100,> 100,–,–,–,–,–,–,–,–,–
CC(=O)Nc1ccccc1NC1CC(C)N(c2ccccc2)N1C(C)=O (stereo not drawn),> 10 µM,–,–,> 10 µM,> 10 µM,–,> 10 µM,> 10,> 10,–,–,–,–,–,–,–,–,–
CC(C)(C)OC(=O)NCC(=O)N1CCN(C(=O)CNC(=O)OC(C)(C)C)CC1,> 100 µM,> 100,> 100 µM,> 100 µM,> 100 µM,> 100 µM,> 100 µM,–,39.7,–,–,–,–,–,–,–,–,–
CCOC(=O)C(NC(=O)OC(C)(C)C)C(=O)OCC,> 100 µM,–,> 100 µM,> 100 µM,> 100 µM,–,> 100 µM,–,> 100,> 100,–,–,–,–,–,–,–,–
NCCCNCCCCN1CC1,–,3.4,> 23.8 µM,> 37.5 µM,–,2.14 µM,–,–,> 29.9,66.5,–,–,–,–,–,–,–,–
COC(=O)C(NC(=O)c1ccccc1)C(c1ccc(Cl)cc1)P(=O)(OC)OC (stereo not drawn),> 100 µM,> 100,> 100 µM,> 100 µM,> 100 µM,> 100 µM,–,–,> 100,–,–,–,–,–,–,–,–,–
Fc1cc(-c2cc(-c3ccc4c(c3)OCO4)n[nH]2)c(Cl)cc1Cl,5.44 µM,6.24,12.9 µM,15.9 µM,7.58 µM,–,3.59 µM,24.8,9.7,> 45.4,–,–,–,–,–,–,–,–
Oc1ccc(Cl)cc1C1=NC(/N=C\c2ccccc2)=NC(c2ccccc2)C1 (stereo not drawn),74.7 µM,> 100,–,> 100 µM,> 100 µM,> 100 µM,> 100 µM,–,> 100,> 100,–,–,–,–,–,–,–,–
C[N+](C)(CCNC(=O)c1cccc2cc3ccccc3nc12)Cc1ccc([N+](=O)[O-])s1,> 25 µM,–,–,> 25 µM,> 25 µM,> 25 µM,> 25 µM,> 25,> 25,> 25,–,–,–,–,–,–,–,–
O=C1CSc2cc([N+](=O)[O-])ccc2N1,> 100 µM,> 100,> 100 µM,> 100 µM,> 100 µM,> 100 µM,> 100 µM,> 100,> 100,–,–,–,–,–,–,–,–,–
O=C(O)CCC(NC(=O)c1ccc(Nc2nc3cc(C(F)(F)F)ccc3nc2C(=O)O)cc1)C(=O)O (stereo not drawn),–,> 100,> 100 µM,> 100 µM,–,> 100 µM,> 100 µM,> 100,> 100,> 100,–,–,–,–,–,–,–,–
COc1ccc(N2C(=O)C3c4[nH]c5ccccc5c4C4CCCCC4C3C2=O)cc1 (stereo not drawn),52.7 µM,32.8,> 100 µM,> 100 µM,> 100 µM,54.4 µM,23.8 µM,25.8,26.4,–,–,–,–,–,–,–,–,–
